US9708247B2, “Modulators of the eIF2alpha pathway” (The Regents of the University of California, priority 2013, dated 2017)

Assays:
auditory fear memory = assay: Cannulation and auditory fear conditioning; assay type: in vivo, rat; settings: rats, infused into amygdala, vs vehicle
Method: Male Sprague Dawley rats (275-350 g) were used for cannulation as described in Migues et al, 2010 (46). ISRIB (0.05 mg/ml, […]) was infused bilaterally into the amygdala immediately after auditory fear conditioning training. The infusion was performed with a microinjector (28 gauge) connected to a Hamilton syringe with plastic tubing at a rate of 0.4 μl/min. To allow for the solution containing ISRIB to diffuse from the tip of the cannula into the tissue, the microinjector stayed in the cannula for one additional minute. Training protocol for auditory fear conditioning consisted of a 2-min period of context A exploration, followed by one pairing of a tone (2800 Hz, 85 dB, 30 s) with a co-terminating foot shock (0.75 mA, 1 s). Rats were returned to their home cage 1 min after the shock. Test for auditory fear memory consisted of a 2 min acclimatizing period to the context B (pre-CS), followed by tone presentation (CS) (2800 Hz, 85 dB, 30 s). Freezing time was measured and percent of freezing was calculated. At the end of the experiment, cannula placement was checked by examining 50 μm brain sections stained with formal-thionin under a light microscope.

[1] = system: hippocampal-dependent memory; assay: Trace fear conditioning after surgery (postsurgical cognitive dysfunction); assay type: in vivo, mouse; settings: mice, perioperative administration, postoperative day three
Source text: FIG. 26. Experimental design for measuring postsurgical cognitive dysfunction and effects of ISRIB on cognitive function; measurement of memory is a behavioral test using trace fear conditioning (TFC), which aims to establish a permanent memory in animals by using sensorial information; associative learning is presented with a neutral conditioning stimulus, paired with an aversive unconditioning stimulus (e.g. shock); freezing by the animal corresponds to the ability of the animal to retain memory from the context in which it has been trained. Separate cohorts of animals were used to assess inflammatory status 24 h after surgery. Downwards arrows represent injection points. FIG. 27. […] Control animals were given vehicle solution.

eIF2α (p-Ser51) = assay: AlphaScreen SureFire eIF2α(p-Ser51) assay in U2OS cells; assay type: cell-based, human; settings: U2OS
Method: U2OS cells were plated on 96 well plates and left to recover overnight. Cells were treated with either with 2 μg/ml tunicamycin or 100 nM thapsigargin in the presence or absence of 100 nM ISRIB or with ISRIB alone for the indicated and the level of eIF2α phosphorylation was determined using the AlphaScreen SureFire eIF2α(p-Ser51) Assay kit (Perkin Elmer) following the manufacturer's recommendations. Plates were read in an Envision Xcite Multilabel Reader using the standard Alpha Screen settings.

CHOP = CHOP immunofluorescence in U2OS cells; assay type: cell-based, human; settings: 100 nM thapsigargin 2 h, 200 nM ISRIB
Method: FIGS. 4A-4B. ISRIB impairs induction of the transcriptional network controlled by ATF4; (FIG. 4A) ER-stress dependent induction of CHOP and GADD34 mRNA is impaired in cells treated with ISRIB; qPCR analysis of total RNA extracted from U2OS cells treated with 2 μg/ml of tunicamycin in the presence or absence of 200 nM ISRIB for the indicated times; mRNA levels for each sample were normalized to GAPDH (N=4); P values are derived from a one tail Student's t-test for unpaired samples; statistical significance: CHOP, P=0.0006 (*); GADD34, P=0.0008 (*); (FIG. 4B) ISRIB blocks CHOP production during ER stress; an immunofluorescence analysis of U2OS cells treated with 100 nM thapsigargin for 2 h in the presence or absence of 200 nM ISRIB is shown; a secondary Alexa Dye 488 anti-mouse antibody and rhodamine-phalloidin were used to visualize CHOP and actin, respectively.
U2OS cells were seeded on Slide Flasks (Thermo Scientific) 18 h prior to processing for immunofluorescence. Cells (60% confluent) were fixed with 4% paraformaldehyde in PBS for 15 min. The cells were then rinsed 3 times with PBS and permeabilized with 0.3% Triton X-100. The fixed cells were rinsed 3 times with PBS and blocked for 1 h at room temperature in PBS supplemented with 0.1% Triton X-100 and 5% normal goat serum. […]

IL-6 = assay: Serum IL-6 after surgery (ELISA); assay type: in vivo, mouse; settings: mice, perioperative administration, 24 h after surgery
Source text: FIG. 26. Experimental design for measuring postsurgical cognitive dysfunction and effects of ISRIB on cognitive function; measurement of memory is a behavioral test using trace fear conditioning (TFC), which aims to establish a permanent memory in animals by using sensorial information; associative learning is presented with a neutral conditioning stimulus, paired with an aversive unconditioning stimulus (e.g. shock); freezing by the animal corresponds to the ability of the animal to retain memory from the context in which it has been trained. Separate cohorts of animals were used to assess inflammatory status 24 h after surgery. Downwards arrows represent injection points.
FIG. 28. […] Levels were measured using an enzyme-linked immunosorbent kit.

[2] = system: rabbit reticulocyte in vitro translation system; assay: Rabbit reticulocyte in vitro translation assay (luciferase mRNA); assay type: biochemical; settings: rabbit reticulocyte lysate
Method: FIG. 24. ISRIB enhances production of luciferase in a rabbit reticulocyte in vitro translation assay; luciferase mRNA was added to the lysates in the presence or absence of different concentrations of ISRIB; the amount of luciferase protein produced was quantitated by addition of One-Glo and the Relative luminescent units were normalized to no-addition control.

## O=C(COc1ccc(Cl)cc1)NC1CCC(NC(=O)COc2ccc(Cl)cc2)CC1 (centres unmarked) [ISRIB]
Auditory fear memory; 3 h
  freezing to tone (CS), short-term memory: no difference
Auditory fear memory; 24 h, p<0.05
  freezing to tone (CS), long-term memory: significant increase
[1]
  memory impairment after surgery (freezing): mitigated memory impairment after surgery
eIF2α (p-Ser51); no ER stress, 120 min
  effect on eIF2α phosphorylation, compound alone: no effect on eIF2α phosphorylation
eIF2α (p-Ser51); tunicamycin or thapsigargin plus 100 nM ISRIB
  effect on eIF2α phosphorylation upon ER stress: did not block eIF2α phosphorylation
CHOP
  CHOP accumulation after induction of ER stress: no CHOP accumulation
IL-6
  serum IL-6 increase after surgery: abrogated the increase in IL6
[2]
  translation of exogenously added mRNA: enhances translation
